This is an account of results in patent EP4144350B1, “TREATMENT OR PREVENTION OF VASCULAR MALFORMATION” (Universitätsmedizin Greifswald, priority 2021, dated 2023).

In the assay the test system is CCM3^-/- cells in fusion organoids. In words: hiPSC-derived vascular fusion organoids, fluorescence imaging. The conditions noted are these: 10 µM, continuous culture, imaged day 5, 7, 10. In kind it is cell-based, human. As for the experimental part: hiPSCs were differentiated into vascular organoids according to the protocol of Wimmer and colleagues. Briefly, 800,000 hiPSCs were seeded in ultra-low attachment 6-well plates (Corning) in aggregation medium for 2 days until aggregates had formed. On day 0, mesodermal induction was initiated with CHIR99021 (Tocris Bioscience, Bristol, United Kingdom) and BMP-4 (Miltenyi Biotec) in N2B27 medium. Supplementation of VEGF-A (PeproTech, Inc., Rocky Hill, NJ, USA) and forskolin (Sigma-Aldrich) on day 3 induced vascular differentiation. On day 5, vascular aggregates were embedded in a collagen I-Matrigel matrix. VEGF-A, FGF-2 (Miltenyi Biotec), and FBS (Thermo Fisher Scientific) enriched StemPro-34 medium (Thermo Fisher Scientific) was added for vessel sprouting. Vascular network extraction was performed on day 10.

For the compound `CN1CCN(C(=O)/C=C/c2ccc([N+](=O)[O-])o2)CC1` [NSC59984, (E)-1-(4-methylpiperazin-1-yl)-3-(5-nitrofuran-2yl)prop-2-en-1-one], the “Proliferation of CCM3^-/- cells in fusion organoids” value is recorded as “inhibited the proliferation of CCM3^-/- cells in fusion organoids”.
